Assays:
[1] = tested on: VCaP cells; experiment: Cellular growth inhibition assay for VCaP cells, CellTiter-Glo; type: cell-based, human; settings: 72 hours treatment, CellTiter-Glo 2.0
Outline: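 GI50 values come from four-parameter curve fits of luminescence data normalized to a zero baseline. Compound, in medium with 0.5% DMSO, was added one day after plating and left for 72 h before CellTiter-Glo 2.0 addition.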

[2] = tested on: T-Rex 293 cell line SC3 cells lacking increased expression of androgen receptor protein; experiment: Cellular growth inhibition, T-Rex 293 SC3 cells without doxycycline, CellTiter-Glo; type: cell-based; settings: T-Rex 293 SC3 cells not exposed to doxycycline, CellTiter-Glo 2.0
Method: (§1) The following types of cells were prepared for this experiment: (i) a T-Rex 293 cell line having increased expression of androgen receptor protein due to exposure to doxycycline and (ii) a T-Rex 293 cell line lacking increased expression of androgen receptor protein. Ability of the test compounds to inhibit proliferation of the foregoing cell types was evaluated according to the procedures set forth below.
(§2) The doxycycline-inducible androgen receptor protein expressing cell line was established using the following protocol: T-Rex 293 cells were purchased from Invitrogen (Cat #R71007) and transfected using Lipofectamine 2000 with the wild-type androgen receptor protein sequence cloned into the pcDNA4/TO vector. Transfected cells were selected using 400 μg/mL Zeocin (Invitrogen Cat #R25001). Following selection, single clones were raised and maintained in Dulbecco's Modified Eagle Medium (DMEM) supplemented with 10% w/w Tetracycline-free fetal bovine serum (FBS) and 250 μg/mL Zeocin. Clones were analyzed for expression of androgen receptor protein in the presence and absence of 10 ng/mL doxycycline (Sigma Cat #D9891), and a single doxycycline-inducible clone (hereinafter “SC3”) was selected for use in downstream assays.
(§3) The SC3 cells were seeded on poly-D-lysine coated, black clear-bottom 384-well plates at 2500/well, in 25 μL Phenol Red Free Dulbecco's Modified Eagle Medium (DMEM) supplemented with 10% w/w charcoal-dextran treated fetal bovine serum (FBS) and 1% w/w pen-strep, with or without 10 ng/mL doxycycline. Pen-Strep is a commercially available mixture of penicillin G and streptomycin, which is used in mammalian cell culture media to prevent bacterial contamination. Phenol Red Free Dulbecco's Modified Eagle Medium (DMEM) supplemented with 10% w/w charcoal-dextran treated fetal bovine serum (FBS) and 1% w/w pen-strep, with or without 10 ng/mL doxycycline is herein referred to as Treatment Medium. Following seeding of cells in the plates, the plates were spun at 300×g for 30 seconds, then equilibrated to room temperature for 30 minutes, and then deposited in a humidified tissue culture incubator maintained at 37° C. with 5% CO2.
(§4) At 24 hours after seeding of the cells, dilutions of test compound were prepared in DMSO and dissolved in Treatment Medium, to achieve a final DMSO concentration of 0.5% w/w, thereby providing the Test Compound Solution. A 25 μL aliquot of the Test Compound Solution was added to cells in the well plates. An equal volume of a solution containing DMSO and Treatment Medium was used as a negative control. Following treatment of cells with Test Compound Solution or said equal volume of a solution containing DMSO and Treatment Medium, the plates were spun at 300×g for 30 seconds, and then left in an incubator for 72 hours. At the end of the treatment duration, cell viability was quantified with CellTiter-Glo 2.0 reagent (Promega Cat #G9243). For this purpose, plates were equilibrated to room temperature for 30 minutes, and then 25 μL of CellTiter-Glo 2.0 reagent was added to cells in the plate wells. Plates were then agitated on a shaker for two minutes at 500 rpm and subsequently incubated at room temperature for 10 minutes. Following incubation, the plates were spun at 3000×g for 30 seconds, then sealed with an optical adhesive cover, and luminescence readings were measured with an EnVision Plate Reader. Data was normalized using zero luminescence for baseline. A four-parameter non-linear regression curve fit was applied to dose-response data in GraphPad Prism data analysis software to determine the half-maximal growth inhibitory concentration (GI50) for each test compound.

[3] = tested on: T47D cells; experiment: Cellular growth inhibition assay for T47D cells, CellTiter-Glo; type: cell-based, human; settings: 72 hours treatment, CellTiter-Glo 2.0 cell viability
Outline: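 Luminescence from CellTiter-Glo 2.0 after 72 h of compound exposure gives the viability signal. Cells grew in insulin-supplemented (0.2 units/mL) DMEM with 10% FBS and were treated one day after seeding at 0.5% DMSO. GI50 values come from four-parameter nonlinear regression.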

[4] = tested on: T-Rex 293 cell line SC3 cells having increased expression of androgen receptor protein due to exposure to doxycycline; experiment: Cellular growth inhibition, T-Rex 293 SC3 cells with doxycycline (androgen receptor induced), CellTiter-Glo; type: cell-based; settings: T-Rex 293 SC3 cells with 10 ng/mL doxycycline (increased androgen receptor expression)
Method: as §1, §2, §3, §4

SMILES	GI50 ([1]; Homo sapiens, VCaP, 72 h) [nM]	GI50 ([2]; 72 h) [nM]	GI50 ([3]; Homo sapiens, T47D, 72 h) [nM]	GI50 ([4]; 72 h) [nM]	GI50 [1] [nM]	GI50 ([2]; 72 hours) [nM]	GI50 [3] [nM]	GI50 ([4]; 72 hours) [nM]
Cc1sc2c(c1C)C(c1ccc(CC[C@@H]3CCCN(c4ncc(C(=O)N[C@H]5C(C)(C)[C@H](Oc6ccc(C#N)c(Cl)c6)C5(C)C)cn4)C3)cc1)=N[C@@H](Cc1ncco1)c1nnc(C)n1-2 [Compound I-299]	< 500	500 to 1500	1500 to 3000	< 500	–	–	–	–
Cc1sc2c(c1C)C(c1ccc(N[C@@H]3CCC[C@H](Nc4ncc(C(=O)N[C@H]5C(C)(C)[C@H](Oc6ccc(C#N)c(Cl)c6)C5(C)C)cn4)C3)cc1)=NC(Cc1ncco1)c1nnc(C)n1-2 (some centres unmarked) [Compound I-653]	< 500	< 500	< 500	< 500	–	–	–	–
Cc1sc2c(c1C)C(c1ccc(C#C[C@H]3C[C@@]4(CCCN(c5ncc(C(=O)N[C@H]6C(C)(C)[C@H](Oc7ccc(C#N)c(Cl)c7)C6(C)C)cn5)C4)C3)cc1)=N[C@@H](C)c1nnc(C)n1-2 [Compound I-379]	–	–	–	–	< 500	> 3000	> 3000	< 500
Cc1sc2c(c1C)C(c1ccc(N3CCN(C4CN(c5ncc(C(=O)NC6C(C)(C)C(Oc7ccc(C#N)c(Cl)c7)C6(C)C)cn5)C4)CC3)cc1)=N[C@@H](CC(=O)OC(C)(C)C)c1nnc(C)n1-2 (stereo partly drawn) [Compound I-236, tert-butyl 2-[(9S)-7-[4-[4-[1-[5-[[3-(3-chloro-4-cyano-phenoxy)-2,2,4,4-tetramethyl-cyclobutyl]carbamoyl]pyrimidin-2-yl]azetidin-3-yl]piperazin-1-yl]phenyl]-4,5,13-trimethyl-3-thia-1,8,11,12-tetrazatricyclo[8.3.0.02,6]trideca-2(6),4,7,10,12-pentaen-9-yl]acetate]	< 500	500 to 1500	< 500	< 500	–	–	–	–
Cc1sc2c(c1C)C(c1ccc(OC3CC4(CCN(c5ccc(C(=O)N[C@H]6C(C)(C)[C@H](Oc7ccc(C#N)c(Cl)c7)C6(C)C)cn5)CC4)C3)cc1)=N[C@@H](Cc1ncco1)c1nnc(C)n1-2 [Compound I-170]	< 500	> 3000	< 500	< 500	–	–	–	–
Cc1sc2c(c1C)C(c1ccc(C(C)(C)N3CC4(CCCN(c5ncc(C(=O)N[C@H]6C(C)(C)[C@H](Oc7ccc(C#N)c(Cl)c7)C6(C)C)cn5)C4)C3)cc1)=N[C@@H](C)c1nnc(C)n1-2 [Compound I-464]	< 500	> 3000	> 3000	< 500	–	–	–	–
Cc1sc2c(c1C)C(c1ccc(O[C@H]3CCCN(c4ncc(C(=O)N[C@H]5C(C)(C)[C@H](Oc6ccc(C#N)c(Cl)c6)C5(C)C)cn4)C3)cc1)=N[C@@H](Cc1ncco1)c1nnc(C)n1-2 [Compound I-253]	< 500	< 500	500 to 1500	< 500	–	–	–	–
Cc1sc2c(c1C)C(c1ccc([C@@H]3CCCN(c4ncc(C(=O)N[C@H]5C(C)(C)[C@H](Oc6ccc(C#N)c(Cl)c6)C5(C)C)cn4)C3)cc1)=N[C@@H](Cc1ncco1)c1nnc(C)n1-2 [Compound I-295]	< 500	< 500	< 500	< 500	–	–	–	–
CCNC(=O)C[C@@H]1N=C(c2ccc(OCCCOC3CCN(c4ncc(C(=O)N[C@H]5C(C)(C)[C@H](Oc6ccc(C#N)c(Cl)c6)C5(C)C)cn4)CC3)cc2)c2c(sc(C)c2C)-n2c(C)nnc21 [Compound I-62]	< 500	< 500	–	< 500	–	–	–	–
Cc1sc2c(c1C)C(c1ccc(Cl)cc1)=N[C@@H](CC(=O)NCCCCN1CCN(CC3CCN(c4ncc(C(=O)N[C@H]5C(C)(C)[C@H](Oc6ccc(C#N)c(Cl)c6)C5(C)C)cn4)CC3)CC1)c1nnc(C)n1-2 [Compound I-37, N-((1r,3r)-3-(3-chloro-4-cyanophenoxy)-2,2,4,4-tetramethylcyclobutyl)-2-(4-((4-(4-(2-((S)-4-(4-chlorophenyl)-2,3,9-trimethyl-6H-thieno[3,2-f][1,2,4]triazolo[4,3-a][1,4]diazepin-6-yl)acetamido)butyl)piperazin-1-yl)methyl)piperidin-1-yl)pyrimidine-5-carboxamide]	< 500	500 to 1500	–	< 500	–	–	–	–
Cc1sc2c(c1C)C(c1ccc(CC3CC(C4CCCN(c5ncc(C(=O)N[C@H]6C(C)(C)[C@H](Oc7ccc(C#N)c(Cl)c7)C6(C)C)cn5)C4)C3)cc1)=N[C@@H](C)c1nnc(C)n1-2 (some centres unmarked) [Compound I-463]	< 500	> 3000	–	< 500	–	–	–	–
Cc1sc2c(c1C)C(c1ccc(Cl)cc1)=N[C@@H](CC(=O)NCCOCCOCCN(C)c1ncc(C(=O)N[C@H]3C(C)(C)[C@H](Oc4ccc(C#N)c(Cl)c4)C3(C)C)cn1)c1nnc(C)n1-2 [Compound I-2, N-[3-(3-chloro-4-cyano-phenoxy)-2,2,4,4-tetramethyl-cyclobutyl]-2-[2-[2-[2-[[2-[(9S)-7-(4-chlorophenyl)-4,5,13-trimethyl-3-thia-1,8,11,12-tetrazatricyclo[8.3.0.02,6]trideca-2(6),4,7,10,12-pentaen-9-yl]acetyl]amino]ethoxy]ethoxy]ethyl-methylamino]pyrimidine-5-carboxamide]	< 500	1500 to 3000	–	< 500	–	–	–	–
CCNC(=O)C[C@@H]1N=C(c2ccc(CCCCCOC3CCN(c4ncc(C(=O)N[C@H]5C(C)(C)[C@H](Oc6ccc(C#N)c(Cl)c6)C5(C)C)cn4)CC3)cc2)c2c(sc(C)c2C)-n2c(C)nnc21 [Compound I-89]	1500 to 3000	500 to 1500	–	< 500	–	–	–	–
Cc1sc2c(c1C)C(c1ccc(Cl)cc1)=N[C@@H](CC(=O)NCCOCCCCCOC1CCN(c3ncc(C(=O)N[C@H]4C(C)(C)[C@H](Oc5ccc(C#N)c(Cl)c5)C4(C)C)cn3)CC1)c1nnc(C)n1-2 [Compound I-34]	< 500	< 500	–	< 500	–	–	–	–
Cc1sc2c(c1C)C(c1ccc(Cl)cc1)=N[C@@H](CC(=O)NCCCOCCCOC1CCN(c3ncc(C(=O)N[C@H]4C(C)(C)[C@H](Oc5ccc(C#N)c(Cl)c5)C4(C)C)cn3)CC1)c1nnc(C)n1-2 [Compound I-29]	< 500	500 to 1500	–	< 500	–	–	–	–
Cc1sc2c(c1C)C(c1ccc(-c3cc(C4CCN(c5ncc(C(=O)N[C@H]6C(C)(C)[C@H](Oc7ccc(C#N)c(Cl)c7)C6(C)C)cn5)CC4)no3)cc1)=NC(Cc1ncco1)c1nnc(C)n1-2 (some centres unmarked) [Compound I-482]	< 500	< 500	–	< 500	–	–	–	–
Cc1sc2c(c1C)C(c1ccc(-c3cn(C4CCN(c5ncc(C(=O)N[C@H]6C(C)(C)[C@H](Oc7ccc(C#N)c(Cl)c7)C6(C)C)cn5)CC4)cn3)cc1)=N[C@@H](Cc1ncco1)c1nnc(C)n1-2 [Compound I-484]	500 to 1500	500 to 1500	–	< 500	–	–	–	–
CCNC(=O)C[C@@H]1N=C(c2ccc(OCCOCCOC3CCN(c4ncc(C(=O)N[C@H]5C(C)(C)[C@H](Oc6ccc(C#N)c(Cl)c6)C5(C)C)cn4)CC3)c(F)c2)c2c(sc(C)c2C)-n2c(C)nnc21 [Compound I-78]	1500 to 3000	1500 to 3000	–	< 500	–	–	–	–

— patent US20260062422A1 (Halda Therapeutics OpCo, Inc., priority 2022, published 2026)
